PubChem BioAssay AID1845208 (Molecular Pharmacology Branch, DTP, NCI, 2023)

System: NCI-H196 SCLC complex tumor spheroid viability
Assay: Anticancer human tumor NCI-H196 cell line growth inhibition;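 further: spheroids exposed to compounds for 7 days before readout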;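 on viability, T/C: 100% = DMSO vehicle control wells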
Details: for IC50: curve of first compound; for viability, T/C: stronger effect = lower value
Procedure, shortened: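 Single agents and combinations were tested on spheroids built from tumor cells plus HUVEC and hMSC, at half-log dilutions starting at or near clinical Cmax, else 10 microM; final DMSO 0.25% (v/v).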

[1] = second compound 1 µM, first compound 0.0316 µM
[2] = second compound 1 µM, first compound 0.1 µM
[3] = second compound 1 µM, first compound 0.316 µM
[4] = second compound 1 µM, first compound 1 µM
[5] = second compound 1 µM, first compound 3.16 µM
[6] = second compound 1 µM, first compound 10 µM
[7] = second compound 3.16 µM, first compound 0.0316 µM
[8] = second compound 3.16 µM, first compound 0.1 µM
[9] = second compound 3.16 µM, first compound 0.316 µM
[10] = second compound 3.16 µM, first compound 1 µM
[11] = second compound 3.16 µM, first compound 3.16 µM
[12] = second compound 3.16 µM, first compound 10 µM
[13] = second compound 10 µM, first compound 0.0316 µM
[14] = second compound 10 µM, first compound 0.1 µM
[15] = second compound 10 µM, first compound 0.316 µM
[16] = second compound 10 µM, first compound 1 µM
[17] = second compound 10 µM, first compound 3.16 µM
[18] = second compound 10 µM, first compound 10 µM
[19] = second compound 31.6 µM, first compound 0.0316 µM
[20] = second compound 31.6 µM, first compound 0.1 µM
[21] = second compound 31.6 µM, first compound 0.316 µM
[22] = second compound 31.6 µM, first compound 1 µM
[23] = second compound 31.6 µM, first compound 3.16 µM
[24] = second compound 31.6 µM, first compound 10 µM
[25] = second compound 100 µM, first compound 0.0316 µM
[26] = second compound 100 µM, first compound 0.1 µM
[27] = second compound 100 µM, first compound 0.316 µM
[28] = second compound 100 µM, first compound 1 µM
[29] = second compound 100 µM, first compound 3.16 µM
[30] = second compound 100 µM, first compound 10 µM

| Compound | IC50 (second compound 1 µM) [µM] | IC50 (second compound 3.16 µM) [µM] | IC50 (second compound 10 µM) [µM] | IC50 (second compound 31.6 µM) [µM] | IC50 (second compound 100 µM) [µM] | viability, T/C [1] [%] | viability, T/C [2] [%] | viability, T/C [3] [%] | viability, T/C [4] [%] | viability, T/C [5] [%] | viability, T/C [6] [%] | viability, T/C [7] [%] | viability, T/C [8] [%] | viability, T/C [9] [%] | viability, T/C [10] [%] | viability, T/C [11] [%] | viability, T/C [12] [%] | viability, T/C [13] [%] | viability, T/C [14] [%] | viability, T/C [15] [%] | other results |
| --- | --- | --- | --- | --- | --- | --- | --- | --- | --- | --- | --- | --- | --- | --- | --- | --- | --- | --- | --- | --- | --- |
| CC1COCCN1c1cc(-c2ccnn2C)c2ccnc(-c3ccn[nH]3)c2n1 (stereo not given) + Cn1nnc2c(C(N)=O)ncn2c1=O | 2.82 | 2.15 | 7.34 | 4.44 | 3.49 | 84.8 | 77.5 | 61.2 | 59.5 | 48.1 | 44.4 | 92.6 | 77.7 | 62.2 | 56.7 | 44.1 | 47.3 | 98.3 | 85.4 | 75.7 | viability, T/C [16]: 58.2%; viability, T/C [17]: 54%; viability, T/C [18]: 48.8%; viability, T/C [19]: 95.2%; viability, T/C [20]: 85.5%; viability, T/C [21]: 71.4%; viability, T/C [22]: 59.6%; viability, T/C [23]: 51.6%; viability, T/C [24]: 46.6%; viability, T/C [25]: 90.3%; viability, T/C [26]: 76.8%; viability, T/C [27]: 69.9%; viability, T/C [28]: 57.9%; viability, T/C [29]: 49.7%; viability, T/C [30]: 44.8% |
| COc1cc(C)[nH]c(=O)c1CN1CCc2c(Cl)cc(C(OC)C3COC3)c(Cl)c2C1=O (stereo not given) + Cn1nnc2c(C(N)=O)ncn2c1=O | > 10 | > 10 | > 10 | > 10 | > 10 | 91.4 | 103 | 89.9 | 86.8 | 94 | 92 | 95.2 | 98.8 | 99.2 | 105 | 90.9 | 97.3 | 106 | 104 | 99.7 | viability, T/C [16]: 103%; viability, T/C [17]: 98.2%; viability, T/C [18]: 102%; viability, T/C [19]: 104%; viability, T/C [20]: 107%; viability, T/C [21]: 101%; viability, T/C [22]: 106%; viability, T/C [23]: 99%; viability, T/C [24]: 105%; viability, T/C [25]: 102%; viability, T/C [26]: 98.9%; viability, T/C [27]: 99.3%; viability, T/C [28]: 87.1%; viability, T/C [29]: 96.4%; viability, T/C [30]: 94.7% |
| COc1ccc([C@@H](O)c2cc(-c3ncnc4cc(N5CCOCC5)ccc34)c(F)cc2Cl)nn1 + Cn1nnc2c(C(N)=O)ncn2c1=O | > 10 | > 10 | > 10 | > 10 | > 10 | 93.8 | 97.1 | 87.3 | 73.5 | 65.6 | 52 | 98.8 | 92.5 | 96.7 | 82.5 | 68.9 | 52.9 | 108 | 97.3 | 96.5 | viability, T/C [16]: 80.1%; viability, T/C [17]: 63.7%; viability, T/C [18]: 55.5%; viability, T/C [19]: 109%; viability, T/C [20]: 101%; viability, T/C [21]: 92.5%; viability, T/C [22]: 80.1%; viability, T/C [23]: 71.4%; viability, T/C [24]: 59.3%; viability, T/C [25]: 105%; viability, T/C [26]: 99.9%; viability, T/C [27]: 95.7%; viability, T/C [28]: 91.2%; viability, T/C [29]: 70.3%; viability, T/C [30]: 57% |
| Cc1cc(C)c(CNC(=O)c2cc(-c3ccc(CN4CCOCC4)cc3)cc3c2cnn3C2CCCC2)c(=O)[nH]1 + Cn1nnc2c(C(N)=O)ncn2c1=O | > 10 | > 10 | > 10 | > 10 | > 10 | 91 | 102 | 92.1 | 92.8 | 90.6 | 105 | 93.6 | 94.5 | 101 | 104 | 100 | 101 | 99.3 | 97.8 | 98.8 | viability, T/C [16]: 93.9%; viability, T/C [17]: 94.9%; viability, T/C [18]: 96%; viability, T/C [19]: 98.5%; viability, T/C [20]: 102%; viability, T/C [21]: 108%; viability, T/C [22]: 110%; viability, T/C [23]: 104%; viability, T/C [24]: 94.7%; viability, T/C [25]: 94.5%; viability, T/C [26]: 98.5%; viability, T/C [27]: 98.9%; viability, T/C [28]: 99%; viability, T/C [29]: 99.8%; viability, T/C [30]: 96% |
| [2H]c1nc(C)nc([2H])c1-c1cc(NC[C@@H](C)c2cccc3c(C(=O)NC)ccnc23)ncn1 + Cn1nnc2c(C(N)=O)ncn2c1=O | > 10 | > 10 | > 10 | > 10 | > 10 | 94.1 | 96.6 | 97.9 | 99.5 | 105 | 91.2 | 100 | 104 | 98.5 | 97.5 | 90.8 | 96.9 | 110 | 99.8 | 97.7 | viability, T/C [16]: 101%; viability, T/C [17]: 101%; viability, T/C [18]: 107%; viability, T/C [19]: 109%; viability, T/C [20]: 104%; viability, T/C [21]: 108%; viability, T/C [22]: 112%; viability, T/C [23]: 99.8%; viability, T/C [24]: 118%; viability, T/C [25]: 101%; viability, T/C [26]: 102%; viability, T/C [27]: 99.3%; viability, T/C [28]: 102%; viability, T/C [29]: 103%; viability, T/C [30]: 104% |
